{
  "source": "patent US10625229B2",
  "about": "“Device for preparing nano-carbon urea” (BEIJING NANO HI-TECH MATERIAL CO., LTD., priority 2016, dated 2020)",
  "key": {"soybean": {"system": "soybean", "assay": "Soybean potted test of nano urea (Heilongjiang)", "assay_type": "in vivo", "conditions": "urea 10.8 g per pot (full dosage), 3 plants per pot", "excerpt": "Soybean Experiment in Heilongjiang Agricultural Academy Test site: Heilongjiang Academy of Agricultural Sciences Laboratory Entrusted unit: Plant Nutrition and Environment Institute of Heilongjiang Agricultural Academy To determine the application effect and nitrogen utilization rate of nano-fertilizer on soybean and rice. Nano urea (46-0-0), calcium superphosphate (0-43-0), potassium sulfate (0-0-0-50), nano carbon sol content 0.57% solute, added amount is 10% of urea weight. Soybeans Potted Test There 3 plants per pot, repeat 6 times. N:P:K rating is 5:3.5:3, the results are as follows: […]"}, "corn": {"system": "corn", "assay": "Field experiment on application of nano-carbon urea in corn (2016, Inner Mongolia)", "assay_type": "in vivo, corn variety Simon 568", "conditions": "Pure N 20 kg/a unit of area (no nitrogen reduction)", "excerpt": "The results of the experiment on the application of nano-carbon urea by bimeng academy of agricultural sciences in Inner Mongolia in 2016 are as follows: Nano-carbon urea is provided by the invention containing 46% nitrogen, and the amount of nano-carbon sol added is 10% of fertilizer weight, color: grey. Corn variety: Simon 568 Test site: Garden Canal Test Station of Agriculture and Animal Husbandry Science Research Institute, Bayannur City Random plot arrangement, 5 treatments, four repeats, […], mulch planting."}},
  "data": [
    {"smiles": "NC(N)=O", "note": "[Common urea, urea]", "values": [
      {"measurement": "Average yield g/pot", "setting": "soybean", "result": 50, "unit": "g/pot"},
      {"measurement": "Yield kg/a unit of area", "setting": "corn", "result": "1002.98 kg/a unit of area"}
    ]}
  ]
}
